The values below come from ChEMBL document CHEMBL1201862, “PubChem BioAssay data set” (2004).

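Cultured in 96-well plates, cells were exposed to test compound for 48 hours across five concentrations. Here, GI50 denotes the concentration required for 50% inhibition of growth.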 Active and inactive are the calls of the source. Rule as the data show it: active = GI50 up to about 1.1 µM and inactive = higher.

What all share (assay): NCI anticancer screen, dose series, 48 h
For experiment [1], the system named is HL-60.
For experiment [2], the system named is OVCAR-5.
The subject of experiment [3] is A549.
Experiment [4] deals with SK-MEL-2.
Experiment [5] deals with CAKI-1.
Experiment [6] concerns TK-10.
Experiment [7] deals with Malme-3M.
In experiment [8] the test system is NCI-H23.
Experiment [9] relates to SN12C.
In experiment [10] the test system is ACHN.
Experiment [11] concerns OVCAR-3.
Experiment [12] concerns OVCAR-8.
Experiment [13] relates to SNB-75.
In experiment [14] the test system is NCI-H226.
The test system of experiment [15] is SNB-19.
For experiment [16], the system named is SF-268.
For experiment [17], the system named is SF-295.

Consider `O=C(/C=C/c1ccccc1O)c1ccccc1O`, for which the GI50 was > 100 µM (inactive) in experiment [1]; > 100 µM (inactive) in experiment [2]; > 100 µM (inactive) in experiment [3]; 80.9 µM (inactive) in [4]; > 100 µM (inactive) in experiment [5]; > 100 µM (inactive) in [6]. The GI50 in [7] is > 100 µM (inactive); in experiment [8] it was 76.2 µM (inactive); in experiment [9], > 100 µM (inactive); in experiment [10], > 100 µM (inactive); in [11], > 100 µM (inactive); in experiment [12], > 100 µM (inactive). Moreover, the GI50 is > 100 µM (inactive) in experiment [13]; 58.9 µM (inactive) in experiment [14]; > 100 µM (inactive) in experiment [15]; > 100 µM (inactive) in [16]; 51.6 µM (inactive) in experiment [17].
Turning to `CC(C)(CN1CCCCC1)C(=O)/C=C/c1ccc(Br)cc1`, the GI50 is 2.4 µM (inactive) in [1]; 2.78 µM (inactive) in [2]; 2.86 µM (inactive) in experiment [3]; 3.69 µM (inactive) in experiment [4]; 0.887 µM (active) in experiment [5]; 3.13 µM (inactive) in experiment [6]. The GI50 in experiment [7] was 5.74 µM (inactive); in [8] it was 2.77 µM (inactive); in [9], 2.57 µM (inactive); in experiment [10] it was 3.4 µM (inactive); in experiment [11], 2.07 µM (inactive); in experiment [12] it was 2.39 µM (inactive). The GI50 in [13] is 5.89 µM (inactive); in [14], 5.78 µM (inactive); in experiment [15], 2.01 µM (inactive); in [16], 2.34 µM (inactive); in experiment [17], 5.09 µM (inactive).
Take `CCN(CC)CCCCC1CCN(CC(=O)N2c3ccccc3NC(=O)CC2C)CC1` (centres undefined): the GI50 in experiment [1] was 64.1 µM (inactive); in experiment [2] it was > 100 µM (inactive); in [3] it was > 100 µM (inactive); in [4], > 100 µM (inactive); in [5] it was > 100 µM (inactive); in [6], > 100 µM (inactive). Moreover, the GI50 in experiment [7], in [8], in experiment [9], in experiment [10], in experiment [11] and in [12] was > 100 µM (inactive) each time. Besides, the GI50 in experiment [13], in experiment [14], in experiment [15], in experiment [16] and in experiment [17] was > 100 µM (inactive) each time.
As for `CC1=NN(C(=O)CC(=O)N(C(=O)c2ccccc2Cl)c2ccc(C)cc2)C(=O)C1/N=N/c1ccc([N+](=O)[O-])cc1` (centres undefined), the GI50 in experiment [1] was > 51.9 µM (inactive); in experiment [2] it was > 46.1 µM (inactive); in experiment [3], 34.1 µM (inactive); in experiment [4], > 100 µM (inactive); in experiment [5] it was > 100 µM (inactive); in experiment [6] it was 49.5 µM (inactive). The GI50 in experiment [7] is > 100 µM (inactive); in experiment [8] it was 47.3 µM (inactive); in experiment [9], > 100 µM (inactive); in [10], > 53.7 µM (inactive); in [11], > 64.7 µM (inactive); in experiment [12] it was 27.9 µM (inactive). Besides, the GI50 in [13] is > 43.6 µM (inactive); in experiment [14], > 76 µM (inactive); in [15] it was 53.1 µM (inactive); in experiment [16], 44.6 µM (inactive); in [17], 58.5 µM (inactive).
With `O=C(Cc1ccccc1)NN1C(=O)C(Cl)C1c1cc(Br)ccc1O` (centres undefined), the GI50 in experiment [1] is 2.46 µM (inactive); in experiment [2], 5.57 µM (inactive); in experiment [3] it was 10.1 µM (inactive); in experiment [4] it was 3.05 µM (inactive); in experiment [5], 13 µM (inactive); in experiment [6] it was 21.6 µM (inactive). For the same compound, the GI50 in experiment [7] was 13.5 µM (inactive); in [8], 4.43 µM (inactive); in experiment [9] it was 7.29 µM (inactive); in [10] it was 2.76 µM (inactive); in experiment [11], 2.56 µM (inactive); in experiment [12], 3.87 µM (inactive). The GI50 was 10.4 µM (inactive) in experiment [13]; 30 µM (inactive) in experiment [14]; 10.4 µM (inactive) in experiment [15]; 1.95 µM (inactive) in [16]; 6.19 µM (inactive) in experiment [17].
On to `O=C(/C=C/c1ccccc1Cl)c1cccc2ccccc12`, for which the GI50 in experiment [1] is 10.4 µM (inactive); in experiment [2], 13.6 µM (inactive); in experiment [3] it was 16.7 µM (inactive); in experiment [4], 18.4 µM (inactive); in experiment [5], 12.5 µM (inactive); in experiment [6], 15.8 µM (inactive). Besides, the GI50 was 16.1 µM (inactive) in experiment [7]; 12.6 µM (inactive) in experiment [8]; 48.6 µM (inactive) in experiment [9]; 16.7 µM (inactive) in experiment [10]; 4.4 µM (inactive) in experiment [11]; 1.97 µM (inactive) in [12]. The GI50 in [13] was 6.97 µM (inactive); in experiment [14], 27.7 µM (inactive); in [15] it was 4.69 µM (inactive); in experiment [16], 12.9 µM (inactive); in [17], 12.5 µM (inactive).
Regarding `O=C1CC2CCCC23CC2(CCN13)OCCO2` (centres undefined), the GI50 in experiment [1], in experiment [2], in experiment [3], in experiment [4], in [5] and in experiment [6] was > 100 µM (inactive) in each case. The GI50 in [7], in experiment [8], in [9], in experiment [10], in [11] and in experiment [12] was > 100 µM (inactive) in each case. The GI50 in experiment [13], in experiment [14], in [15], in experiment [16] and in experiment [17] was > 100 µM (inactive) in each case.
`COC(=O)[C@@H](C)[C@H]1CC[C@@](C)(CCC2=C(C)CC3C=C(C)CCC3C2(C)C)OO1` (some centres undefined): the GI50 was 0.212 µM (active) in experiment [1]; 1.87 µM (inactive) in experiment [2]; 1.6 µM (inactive) in experiment [3]; 1.59 µM (inactive) in experiment [4]; 1.34 µM (inactive) in [5]; 1.91 µM (inactive) in [6]. For the same compound, the GI50 in experiment [7] is 1.91 µM (inactive); in experiment [8], 1.7 µM (inactive); in experiment [9], 1.06 µM (active); in experiment [10], 1.53 µM (inactive); in experiment [11], 1.92 µM (inactive); in [12], 1.92 µM (inactive). Also, the GI50 in experiment [13] is 1.57 µM (inactive); in experiment [14], 2.04 µM (inactive); in experiment [15], 1.72 µM (inactive); in experiment [16], 1.85 µM (inactive); in [17], 1.79 µM (inactive).
Turning to `COc1ccc(C(=O)C2=NON3OC23C(=O)c2ccc(OC)cc2)cc1` (centres undefined), the GI50 in experiment [1] is 2.18 µM (inactive); in experiment [2], 20.7 µM (inactive); in experiment [3] it was 22.4 µM (inactive); in [4], 19.5 µM (inactive); in experiment [5], 2.81 µM (inactive); in [6], 19.7 µM (inactive). For the same compound, the GI50 is 12.9 µM (inactive) in experiment [7]; 13.2 µM (inactive) in [8]; 15.3 µM (inactive) in experiment [9]; 17.5 µM (inactive) in experiment [10]; 9.59 µM (inactive) in [11]; 8.77 µM (inactive) in experiment [12]. Moreover, the GI50 in experiment [13] was 24.7 µM (inactive); in experiment [14] it was 16.8 µM (inactive); in experiment [15] it was 15.9 µM (inactive); in experiment [16], 18.8 µM (inactive); in experiment [17], 19.2 µM (inactive).
As for `CCOC1=C2C(C)(CCC3[C@@]4(C)C=CC(=O)C(C)(C)C4CC(O)[C@@]23C)C(c2ccoc2)C1=O` (some centres undefined), the GI50 in experiment [1] was 14.4 µM (inactive); in experiment [2], 19.2 µM (inactive); in experiment [3], 21.1 µM (inactive); in experiment [4] it was 19.2 µM (inactive); in [5] it was 20.7 µM (inactive); in experiment [6] it was 25.2 µM (inactive). Also, the GI50 in [7] is > 10 µM (inactive); in [8], 13.1 µM (inactive); in experiment [9] it was 25.1 µM (inactive); in [10], 18.4 µM (inactive); in [11] it was 17 µM (inactive); in experiment [12], 18.3 µM (inactive). Also, the GI50 is 54.3 µM (inactive) in experiment [13]; 22 µM (inactive) in experiment [14]; 27.2 µM (inactive) in [15]; 24.2 µM (inactive) in experiment [16]; 12.8 µM (inactive) in experiment [17].
Take `COc1ccc(C(=O)C#Cc2cnc(O)nc2O)cc1`: the GI50 in [1] was 5.21 µM (inactive); in experiment [2] it was 17.1 µM (inactive); in experiment [3], 20.7 µM (inactive); in [4], 7.46 µM (inactive); in [5] it was 9.64 µM (inactive); in experiment [6] it was 9.31 µM (inactive). Further, the GI50 in experiment [7] is 5.08 µM (inactive); in [8], 14.6 µM (inactive); in [9], 6.32 µM (inactive); in experiment [10], 14.8 µM (inactive); in [11] it was 9.1 µM (inactive); in [12], 8.81 µM (inactive). Also, the GI50 in experiment [13] was 23.8 µM (inactive); in experiment [14] it was 18.7 µM (inactive); in experiment [15] it was 17.5 µM (inactive); in experiment [16] it was 21.1 µM (inactive); in [17] it was 33 µM (inactive).
Take `COc1ccc(CCc2cc(OC)cc(OC)c2)cc1`: the GI50 in experiment [1] is 8.69 µM (inactive); in [2] it was > 61.5 µM (inactive); in experiment [3], 19.2 µM (inactive); in experiment [4], 11.1 µM (inactive); in experiment [5], 13.2 µM (inactive); in experiment [6] it was 54.2 µM (inactive). The GI50 in [7] is 33.7 µM (inactive); in experiment [8], 24.2 µM (inactive); in [9], 45.9 µM (inactive); in [10] it was 58.5 µM (inactive); in experiment [11], 10.9 µM (inactive); in [12], 66.4 µM (inactive). Further, the GI50 was 32.9 µM (inactive) in experiment [13]; 30.7 µM (inactive) in experiment [14]; > 100 µM (inactive) in [15]; 39.4 µM (inactive) in experiment [16]; 22.6 µM (inactive) in experiment [17].
